Reference: patent publication US20020146823A1, “Method for promoting hematopoietic and mesenchymal cell proliferation and differentiation” (The University of Southern California, priority 1997, published 2002)

What was measured:
[1] = system: Murine Peritoneal Macrophages; test: Phagocytic capability of murine peritoneal macrophages (opsonized yeast ingestion); format: cell-based, C57B1/6 mice
Experimental: Resident peritoneal macrophages have very little phagocytic activity. Exposure of macrophages to inflammatory or activating agents will increase this macrophage function. Resident peritoneal macrophages were harvested from C57B1/6 mice or Sprague Dawley rats and resuspended at a concentration of 1×10^6 cells/ml in phosphate buffered saline (PBS). Five separate 0.5 ml cell aliquots were placed on a glass coverslip in a 35 mm petri dish. Prior to incubation, either 0.5 ml of PBS, AII, or AII analogues or fragments at between 1-1000 ug/ml final concentration was added to the individual cover slips. The dishes containing the cover slips were then incubated at 37° C. for 4 hours, after which the cover slips were washed 3 to 6 times with PBS. Opsonized yeast particles (Sigma Chemical Co.) (yeast opsonized with adult serum from the same species as that under study) were added to the cover slips and incubated for 2 hours, after which the cover slips were again washed with PBS and inverted onto a glass slide. The number of macrophages that ingested yeast and the number of yeast per macrophage ingested was then determined microscopically. At least 100 macrophages per coverslip were counted. The data from this study are summarized in Tables 3 and 4 and FIGS. 1 and 2.

[2] = system: rat peritoneal macrophages; test: Respiratory burst (hydrogen peroxide generation) in rat peritoneal macrophages; format: cell-based; conditions: alone and in response to PMA; 4 hours exposure
Experimental: (§1) The respiratory burst of leukocytes (macrophages and polymorphonuclear neutrophils) is one component of the mediator system used to kill bacteria. As with phagocytosis, the level of this respiratory burst activity in resident macrophages is low. […] Studies were conducted to assess the effect of in vitro exposure of murine or rat peritoneal macrophages and human peripheral blood mononuclear cells (PBMC) to various concentrations of AII on the capacity to generate hydrogen peroxide via the respiratory burst system. For the human studies, five different donors were examined.
(§2) The murine or rat peritoneal cells were harvested by lavage with 5-15 ml of cold PBS with 0.5% bovine serum albumin. The human PBMC were harvested by venipuncture from normal human volunteers and isolated from peripheral blood by Ficoll Hypaque density centrifugation. After isolation, the cells were resuspended at 1×10^6 cells/ml and placed at 100 μl per well into 96 well plates. The cells were incubated with various concentrations of AII or AII analogues and fragments for 4 hours at 37° C. The cells were then preloaded with a fluorescent probe for hydrogen peroxide, 2,7 dichlorofluorescein acetate, which is nonfluorescent in the absence of hydrogen peroxide. […] One hour after stimulation the level of fluorescence produced was measured on a Cytofluor 2350 multiwell fluorometer.

[3] = system: murine peritoneal macrophages; test: Respiratory burst (hydrogen peroxide generation) in murine peritoneal macrophages; format: cell-based; conditions: alone and in response to PMA; 4 hours exposure
Experimental: as §1, §2

Asp-Arg-Val-Tyr-Ile-His-Pro-Phe (DRVYIHPF; printed: Asp-Arg-Val-Tyr-Ile-His-Pro-Phe) [AII, octapeptide present in humans and other species; known pressor agent, commercially available]
# Macrophages with Yeast, Yeast # 0 ([1]; AII 10 μg/ml): 100
# Macrophages with Yeast, Yeast # 7-9 ([1]; AII 10 μg/ml): 0
# Macrophages with Yeast, Yeast # 0 ([1]; AII 100 μg/ml): 100
# Macrophages with Yeast, Yeast # 7-9 ([1]; AII 100 μg/ml): 0
% Ingesting ([1]; AII 100 μg/ml): 16.7%
# Macrophages with Yeast, Yeast # 0 ([1]; AII 1000 μg/ml): 100
# Macrophages with Yeast, Yeast # 7-9 ([1]; AII 1000 μg/ml): 0
% Ingesting ([1]; AII 1000 μg/ml): 25.6%
phagocytic capability of peritoneal macrophages ([1]; exposure to 10 μg/ml or greater): tremendously increased
% phagocytic ([1]; highest concentration): over 25%
yeast observed per macrophage, on average ([1]; highest concentration): ~1
increase in the number of macrophages able to phagocytose ([1]; highest concentration vs resident population): 25 fold
ability of leukocytes to generate hydrogen peroxide [2]: increased the ability of leukocytes to generate hydrogen peroxide both alone and in response to stimulation with PMA
ability of leukocytes to generate hydrogen peroxide [3]: increased the ability of leukocytes to generate hydrogen peroxide both alone and in response to stimulation with PMA
